# Data from patent US11447523B2, “Methods for reducing CD36 expression” (Cornell Research Foundation, Inc., priority 2005, dated 2022).
# “Also recorded” adds a separate entry of the source. Square brackets hold non-standard residues; d marks the D form. Ends that are not written are not given here.
# How the values were obtained:
# [1] = test system: mouse peritoneal macrophages; assay: oxLDL-induced apoptosis of macrophages; assay type: cell-based; details: SS-31 1 nM concurrent with oxLDL (oxLDL alone 32.8%, no oxLDL 6.7%)
# Procedure: Incubation of macrophages with oxLDL increased apoptotic cells from 6.7% to 32.8%.
# CD36 [2] = assay: CD36 immunostaining in isolated hearts after cold ischemic storage and warm reperfusion; set-up: species or system guinea pig; details: 1 nM SS-31 or 100 nM SS-20 in St. Thomas solution, 18 h at 4° C., 90 min reperfusion at 34° C.
# Procedure: Isolated guinea pig hearts were perfused with St. Thomas solution alone, or St. Thomas solution containing 1 nM SS-31 or 100 nM SS-20, for 3 min. and then stored in the same solution at 4° C. for 18 hours. After ischemic storage, hearts were reperfused with 34° C. Kreb-Henseleit solution for 90 min. Hearts freshly isolated from guinea pigs were used as controls.
# The hearts were fixed in paraffin and sliced for immunostaining with an anti-CD36 rabbit polyclonal antibody. Two sections are shown for each treatment group. […] The “background” (FIGS. 12A and 12B) represents two sections from a normal non-ischemic heart that was not treated with the primary antibody. “Normal heart” (FIGS. 12C and 12D) represents two sections obtained from a non-ischemic heart.
# CD36 [3] = assay: CD36 immunostaining on renal tubular cells after unilateral ureteral obstruction (UUO); assay type: in vivo, Sprague-Dawley rats; details: rats, SS-31 1 mg/kg ip one day before UUO and daily for 14 days
# Procedure: UUO was performed in Sprague-Dawley rats. The rats were treated with saline (ip, n=6) or SS-31 (1 mg/kg ip, n=6) one day prior to induction of UUO, and once a day for 14 days after UUO. Rats were killed, kidneys removed, embedded in paraffin and sectioned. The slides were treated with the anti-CD36 polyclonal IgG (Santa Cruz #sc-9154; 1:100 with blocking serum) at room temperature for 1.5 hours. The slides were then incubated with the second antibody conjugated with biotin (anti-rabbit IgG-G1; ABC kit, PK-6101) at room temperature for 30 min. The slides were then treated with avidin, developed with DAB and counterstained with 10% hematoxylin. The contralateral unobstructed kidney served as the control for each animal.
# diabetic mice = assay: Streptozotocin (STZ)-induced diabetic mice, renal damage; assay type: in vivo, CD-1 mice
# Procedure: Streptozotocin (STZ) was used to induce diabetes in mice. Three groups of CD-1 mice were studied. Group I—no STZ treatment; Group II—STZ (50 mg/kg, ip) was given once a day for 5 d; Group III—STZ (50 mg/kg, ip) was given once a day for 5 d, and SS-31 (3 mg/kg, ip) was given once a day for 16 d. […] By week 3, blood glucose values were: Group I (10.6.noteq.0.27 mmol/L); Group II (24.5.noteq.1.15 mmol/L); Group III (21.3 1.48 mmol/L). Animals were sacrificed after 3 weeks and kidney tissues preserved for histopathology. Kidney sections were examined by Periodic Schiff (PAS) staining for renal tubular brush border.
# In mice not treated with STZ, the renal brush border in the cortex was stained red with PAS (FIG. 16A, see white arrows).
# Kidney sections were examined for apoptosis using the TUNEL assay. After deparaffinization, sections were incubated with deoxynucleotidyl transferase (Tdt) with digoxigenin-dNTP for 1 hour. The reaction was stopped with terminating buffer. A fluorescent anti-digoxigenin antibody was then applied.
# CD36 [4] = assay: oxLDL-induced CD36 mRNA expression in mouse peritoneal macrophages; assay type: cell-based
# Procedure: CD36 expression is regulated at the transcriptional level by various cellular stimuli, including glucose and oxLDL. Macrophages were harvested from mice peritoneal cavity and culture overnight in the absence or presence of oxLDL (50 μg/ml) for 48 h.
# [5] = test system: isolated guinea pig hearts; assay: Isolated hearts: lipid peroxidation, endothelial apoptosis and coronary flow after cold ischemia and warm reperfusion; details: 1 nM SS-31 or 100 nM SS-20 in St. Thomas solution; for HNE staining (lipid peroxidation) in stored hearts / endothelial apoptosis in stored hearts / coronary flow restored, of pre-ischemic flow: 18 h at 4° C., 90 min reperfusion; for coronary flow restored, of pre-ischemic flow: pre-ischemic control = 100%; for coronary flow (in words): 18 h cold ischemia, warm reperfusion
# Procedure: Guinea pig hearts were perfused with a cardioplegic solution (St. Thomas solution) alone or St. Thomas solution containing either 1 nM SS-31 or 100 nM SS-20 for 3 min. and then subjected to 18 hours of cold ischemia (4° C.). The hearts were then reperfused with Krebs Henseleit buffer at 34° C. for 90 min. Immunohistochemical analysis of 4-hydroxynonenol (HNE)-modified proteins in paraffin sections from tissue slices were performed by incubation with an anti-HNE antibody (Santa Cruz) and a fluorescent secondary antibody. […] HNE staining was reduced in hearts stored in SS-31 (FIG. 13C) or SS-20 (FIG. 13D).
# Guinea pig heats were perfused with a cardioplegic solution (St. Thomas solution) alone or St. Thomas solution containing either 1 nM SS-31 or 100 nM SS-20 for 3 min. and then subjected to 18 hours of cold ischemia (4° C.). The hearts were then reperfused with Krebs Henseleit buffer at 34° C. for 90 min. After deparaffinization, sections were incubated with deoxynucleotidyl transferase (Tdt) with digoxigenin-dNTP for 1 hour. The reaction was stopped with terminating buffer. A fluorescent anti-digoxigenin antibody was then applied.
# A significant improvement of coronary blood flow after prolonged cold ischemic storage and warm reperfusion occurred (FIG. 15). Guinea pigs hearts were perfused with a cardioplegic solution (St. Thomas solution) alone or St. Thomas solution containing either 1 nM SS-31 (FIG. 15A) or 100 nM SS-20) (FIG. 15B) for 3 min. and then subjected to 18 hours of cold ischemia (4° C.). The hearts were then reperfused with Krebs Henseleit buffer at 34° C. for 90 min.
# [6] = test system: CD36 knock-out mice subjected to acute cerebral ischemia; assay: Acute cerebral ischemia in CD36 knockout mice; assay type: in vivo, mouse; details: CD36 KO mice
# Procedure: CD36 knockout (CD36 KO) mice were subjected to acute cerebral ischemia as described under Example 2. CD36 KO mice were given either saline vehicle (Veh) (ip, n=5) or SS-31 (2 mg/kg, i.p. n=5) at 0, 6, 24 and 48 h after 30 min ischemia.
# [7] = test system: mouse peritoneal macrophages; assay: oxLDL-induced foam cell formation (oil red O) in macrophages; assay type: cell-based; details: SS-31 1 μM, oxLDL 48 h
# Excerpt: Foam cell is indicated by oil red O which stains lipid droplets red.
# [8] = test system: wild-type mice subjected to acute cerebral ischemia; assay: Acute cerebral ischemia (30 min middle cerebral artery occlusion) in wild-type mice; assay type: in vivo, mouse; details: WT mice
# Procedure: Cerebral ischemia was induced by occlusion of the right middle cerebral artery for 30 min. Wild-type (WT) mice were given either saline vehicle (Veh) (ip, n=19) or SS-31 (2 mg/kg or 5 mg/kg, ip, n=6) at 0, 6, 24 and 48 h after ischemia. Mice were killed 3 days after ischemia. Brains were removed, frozen, and sectioned. Brain sections were stained by the Nissl stain. Infarct volume and hemispheric swelling was determined using an image analyzer. Data were analyzed by one-way ANOVA with posthoc analysis.
# (*P<0.05 compared to Veh).
# [9] = test system: obstructed kidney after UUO; assay: Kidney damage after unilateral ureteral obstruction (HNE, TUNEL, ED1 macrophages, Masson's trichrome); assay type: in vivo, Sprague-Dawley rats; details: rats, SS-31 1 mg/kg ip one day before UUO and daily for 14 days
# Procedure: Rats were then killed, kidneys removed, embedded in paraffin and sectioned. Slides were incubated with anti-HNE rabbit IgG and a biotin-linked anti-rabbit IgG was used as secondary antibody. The slides were developed with DAB. Lipid peroxidation, which was increased by UUO, was reduced by SS-31 treatment (FIG. 8).
# Rats were then killed, kidneys removed, embedded in paraffin and sectioned. To quantitate nuclei with fragmented DNA, the TUNEL assay were performed with in situ TUNEL kit (Intergen, Purchase, N.Y.). Slides were developed with DAB and counterstained with 10% hematoxylin.
# Rats were treated with either saline (n=6) or SS-31 (1 mg/kg ip, n=6) one day prior to induction of UUO, and once a day for 14 days after UUO. Rats were then killed, kidneys removed, embedded in paraffin and sectioned. Slides were treated with monoclonal antibody for ED1 macrophage (1:75; Serotec). Horseradish-peroxidase-linked rabbit anti-mouse secondary antibody (Dako) was used for macrophage detection. Sections were then counterstained with 10% hematoxylin.
# Rats were treated with either saline (n=6) or SS-31 (1 mg/kg ip, n=6) one day prior to induction of UUO, and once a day for 14 days after UUO. Rats were then killed, kidneys removed, embedded in paraffin and sectioned. Slides were stained with hematoxylin and eosin and Masson's trichome for interstitial fibrosis (blue stain).
# CD36 [10] = assay: CD36 protein expression by western blot in mouse peritoneal macrophages; assay type: cell-based; details: P<0.01
# Excerpt: Other controls included CD36 expression from mouse heart (H) and macrophages obtained from CD36 knockout mice (KO). The amount of CD36 protein was normalized to β-actin.
# CD36 [11] = assay: CD36 mRNA (real time PCR) in post-ischemic brain of wild-type mice; assay type: in vivo, mouse; details: WT mice, SS-31 5 mg/kg ip at 0 and 6 h after 30 min ischemia
# Procedure: Wild-type mice were given saline vehicle (Veh, i.p., n=6) or SS-31 (5 mg/kg, i.p., n=6) at 0 and 6 h after 30 min ischemia, and CD36 mRNA levels were determined using real time PCR.
# [12] = SS-31 2 mg/kg ip at 0, 6, 24, 48 h, vs saline
# [13] = SS-31 2 mg/kg or 5 mg/kg ip at 0, 6, 24, 48 h after ischemia, vs saline, P<0.05
substance,measurement,setting,value
D-Arg-2′6′Dmt-Lys-Phe-NH2 [SS-31],percentage of apoptotic cells induced by oxLDL,[1],20.8%
same,CD36 staining in stored hearts,CD36 [2],significantly reduced; also recorded: did not show the upregulation of CD36 expression
same,CD36 expression on tubular cells of obstructed kidney,CD36 [3],significant reduction in CD36 expression; also recorded: suppresses the upregulation of CD36; also recorded: decreases CD36 expression
same,blood glucose by week 3,"diabetic mice; Group III: STZ 50 mg/kg ip 5 d + SS-31 3 mg/kg ip daily 16 d (STZ alone 24.5, no STZ 10.6)",21.3 mmol/L
same,effect on blood glucose (in words),"diabetic mice; STZ mice, SS-31 3 mg/kg ip daily",without affecting blood glucose
same,architecture of the proximal renal tubules,"diabetic mice; STZ mice, SS-31 3 mg/kg ip daily, 3 weeks",architecture of the proximal renal tubules was preserved
same,apoptotic cells in proximal tubule (TUNEL),"diabetic mice; STZ mice, SS-31 3 mg/kg ip daily, 3 weeks, 3 mg/kg",dramatically reduced apoptotic cells in the proximal tubule; also recorded: inhibit tubular cell apoptosis; also recorded: significantly reduced
same,oxLDL-induced up-regulation of CD36 mRNA,"CD36 [4]; SS-31 10 nM or 1 μM, oxLDL 50 μg/ml, 48 h",abolished the up-regulation of CD36; also recorded: reduced oxLDL-induced CD36 mRNA expression
same,"CD36 expression, peptide by itself","CD36 [4]; SS-31 alone, without oxLDL",had no effect on CD36 expression
same,HNE staining (lipid peroxidation) in stored hearts,[5],reduced
same,endothelial apoptosis in stored hearts,[5],Apoptotic cells were not observed
same,"coronary flow restored, of pre-ischemic flow",[5],approximately 80%
same,coronary flow (in words),[5],preserves coronary flow
same,GSH depletion in the ipsilateral cortex,[6]; SS-31 2 mg/kg ip,failed to further prevent GSH depletion; also recorded: did not reduce GSH depletion
same,hemispheric swelling,[6]; [12],no effect
same,infarct volume,[6]; [12],no effect in reducing infarct volume
same,oxLDL-induced foam cell formation,[7],prevented oxLDL-induced foam cell formation; also recorded: reduced
same,depletion of GSH in the striatum,"[8]; SS-31 2 mg/kg ip at 0, 6, 24, 48 h",reduced by SS-31 treatment but did not reach statistical significance
same,depletion of GSH in the ipsilateral cortex,"[8]; SS-31 2 mg/kg ip at 0, 6, 24, 48 h, 2 mg/kg",significantly reduced; also recorded: reduced the decrease in reduced glutathione (GSH)
same,hemispheric swelling,[8]; [13],significant reduction; also recorded: reduced
same,infarct volume,[8]; [13],significant reduction in infarct volume; also recorded: reduced infarct volume
same,tubular dilation,[9],Tubular dilation was also observed
same,number of apoptotic cells (TUNEL) in obstructed kidney,"[9]; P<0.001, 1 mg/kg",significantly reduced; also recorded: reduced tubular cell apoptosis
same,interstitial fibrosis in obstructed kidney,"[9]; P<0.05, 1 mg/kg",significantly less fibrosis; also recorded: reduced interstitial fibrosis
same,macrophage infiltration (ED1) in obstructed kidney,"[9]; P<0.05, 1 mg/kg",significantly reduced; also recorded: reduced macrophage infiltration
same,lipid peroxidation (HNE stain) in obstructed kidney,"[9]; vs saline, 1 mg/kg",significantly less HNE stain; also recorded: reduces lipid peroxidation
same,oxLDL-induced upregulation of CD36 protein expression,"CD36 [10]; SS-31 1 μM concurrent with 25 μg/ml oxLDL, 48 h",significantly inhibited the upregulation of CD36 protein expression; also recorded: reduced
same,CD36 protein expression versus vehicle control,"CD36 [10]; SS-31 1 μM, no oxLDL, normalized to β-actin",significantly reduced CD36 protein expression
same,CD36 mRNA in the ipsilateral brain,CD36 [11],significantly reduced; also recorded: reduced CD36 mRNA expression
F[dR]FK-NH2 [SS-20],CD36 staining in stored hearts,CD36 [2],significantly reduced; also recorded: did not show the upregulation of CD36 expression
same,HNE staining (lipid peroxidation) in stored hearts,[5],reduced
same,endothelial apoptosis in stored hearts,[5],Apoptotic cells were not observed
same,"coronary flow restored, of pre-ischemic flow",[5],approximately 80%
same,coronary flow (in words),[5],preserves coronary flow
